Measured values from ChEMBL document CHEMBL1201862, “PubChem BioAssay data set” (2004).
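1) Cells in 96-well plates. 2) Compound, 48 h, 5 concentrations. 3) Linear interpolation between surrounding doses. 4) Unreached endpoint = highest concentration. GI50 = concentration required for 50% inhibition of growth.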 Activity calls are given as the source filed them. Cut-off read from the data, not from the text of the source: active = GI50 up to about 1.1 µM and inactive = higher.

How the values were obtained:
Assay in all cases: DTP human tumour cell line panel, 48 h
[1] = test system: KM-20L2
[2] = test system: M19-MEL
[3] = test system: XF498
[4] = test system: DMS-114
[5] = test system: RXF 631
[6] = test system: DLD-1
[7] = test system: SNB-78
[8] = test system: DMS-273
[9] = test system: LXFL 529

Row | SMILES | GI50 [1] | GI50 [2] | GI50 [3] | GI50 [4] | GI50 [5] | GI50 [6] | GI50 [7] | GI50 [8] | GI50 [9]
1 | CC(C)=CC1CCc2ccccc2N1S(=O)(=O)c1ccc(C)cc1 (configuration not stated) | 1.34 µM (inactive) | 1.44 µM (inactive) | 3.63 µM (inactive) | 1.06 µM (active) | 2.96 µM (inactive) | 2.57 µM (inactive) | 1.44 µM (inactive) | 0.697 µM (active) | 2.36 µM (inactive)
2 | CC1NOC(=O)C1/N=N/c1ccccc1Br (configuration not stated) | 38.3 µM (inactive) | 19 µM (inactive) | 20.3 µM (inactive) | 18.9 µM (inactive) | 31.3 µM (inactive) | 31.6 µM (inactive) | 26.5 µM (inactive) | 31.6 µM (inactive) | 15.7 µM (inactive)
3 | COc1ccccc1NC(=O)C1=C(C)NC(C)=C(C(=O)Nc2ccccc2OC)C1c1ccccc1F | 92.9 µM (inactive) |  |  | 47.8 µM (inactive) | > 100 µM (inactive) | > 100 µM (inactive) | 51.5 µM (inactive) | 70.3 µM (inactive) | 57.5 µM (inactive)
4 | IC[P+]1(c2ccccc2)CCCC1 | 26.2 µM (inactive) | 21.3 µM (inactive) | < 0.01 µM (active) | 9.25 µM (inactive) |  | 52.2 µM (inactive) | > 100 µM (inactive) | 18.7 µM (inactive) | 29.6 µM (inactive)
5 | CN/N=C(/CC(=O)c1sc(-n2nc(-c3ccccc3)cc2-c2ccccc2)nc1C)C(=O)Nc1ccc(Cl)c(Cl)c1 |  | 42.5 µM (inactive) |  |  |  | 37.6 µM (inactive) | 14 µM (inactive) |  | 26.3 µM (inactive)
6 | COc1ccc(-c2cc(O)c3cc4c(cc3n2)OCO4)c(OC)c1 |  | 43 µM (inactive) | 30.3 µM (inactive) |  |  | 36.8 µM (inactive) | 54.7 µM (inactive) | 33.7 µM (inactive) | 45.7 µM (inactive)
7 | CNC(=O)OCc1nc(SC(C)C)n(C)c1COC(=O)NC | > 100 µM (inactive) | > 100 µM (inactive) |  | > 83.6 µM (inactive) |  | > 100 µM (inactive) | 65.6 µM (inactive) | 99.8 µM (inactive) | > 100 µM (inactive)
8 | CC12CCC(C)(c3cc(O)c(O)cc31)c1cc(O)c(O)cc12 | 19 µM (inactive) | 13.7 µM (inactive) | 17.1 µM (inactive) | 14.8 µM (inactive) | 20.2 µM (inactive) | 17.5 µM (inactive) | 17.7 µM (inactive) | 17.3 µM (inactive) | 8.47 µM (inactive)
9 | Cn1cc(C2(C)CC(C)(C)c3c2n(C)c2ccccc32)c2ccccc21 (configuration not stated) | > 100 µM (inactive) | > 100 µM (inactive) | 81.1 µM (inactive) | 59.6 µM (inactive) |  | > 100 µM (inactive) | > 100 µM (inactive) | > 100 µM (inactive) | > 100 µM (inactive)
10 | N/N=C1/C(=O)N(c2ccc(Cl)cc2)C(=O)C(=O)C1c1nc2ccccc2s1 (configuration not stated) | > 100 µM (inactive) | > 100 µM (inactive) | > 95.1 µM (inactive) | > 100 µM (inactive) |  | > 100 µM (inactive) | > 100 µM (inactive) | > 100 µM (inactive) | > 100 µM (inactive)
11 | O=C(NP(=O)(N1CC1)N1CC1)c1cc(I)ccc1I [DIIODBENZOTEPH] | > 100 µM (inactive) | 58.9 µM (inactive) | > 52.6 µM (inactive) | 19.9 µM (inactive) |  | > 100 µM (inactive) | > 100 µM (inactive) | 11.6 µM (inactive) | > 100 µM (inactive)
12 | [O-][S+]1c2ccc(Cl)cc2CC(SSC2Cc3cc(Cl)ccc3[S+]([O-])c3ccccc32)c2ccccc21 (configuration not stated) | > 100 µM (inactive) | > 100 µM (inactive) |  | > 100 µM (inactive) | > 100 µM (inactive) | > 100 µM (inactive) | > 100 µM (inactive) | > 100 µM (inactive) | > 100 µM (inactive)
13 | CC(=O)C1(O)Cc2c(O)c3c(c(O)c2C(OC2CC(N)C(O)C(C)O2)C1)C(=O)c1ccccc1C3=O (configuration not stated) | < 0.0152 µM (active) |  | < 0.0125 µM (active) |  |  | 0.023 µM (active) | 0.0457 µM (active) | 0.01 µM (active) | < 0.0219 µM (active)
14 | CC1(O)CC2C(CC1SCCO)C2(C)C (configuration not stated) |  | > 100 µM (inactive) | > 100 µM (inactive) | > 100 µM (inactive) |  | > 100 µM (inactive) | > 100 µM (inactive) | > 100 µM (inactive) | > 100 µM (inactive)
15 | CC(=O)NNc1nc(C)c(C(=O)NNC(=O)C(=O)Nc2ccc(C)c(C)c2)s1 | > 100 µM (inactive) | 68.1 µM (inactive) |  | 32.2 µM (inactive) |  | 93.8 µM (inactive) | > 100 µM (inactive) | > 100 µM (inactive) | 58.2 µM (inactive)
16 | Cn1nc(-c2ccccc2)c(C(=O)/C=C/c2ccc(Cl)cc2)c(N2CCCCC2)c1=O | 2.43 µM (inactive) | 2.25 µM (inactive) | 1.64 µM (inactive) | 1.92 µM (inactive) | 3.4 µM (inactive) | 2.53 µM (inactive) |  | 2.31 µM (inactive) | 1.8 µM (inactive)
17 | C=C1C(=O)OC2C1CC[C@H](C)C1(O)C(O)CC(=O)[C@@]21C (some centres not stated) |  | 12.3 µM (inactive) |  | 16.7 µM (inactive) |  | 18.7 µM (inactive) | 26.7 µM (inactive) | 22.3 µM (inactive) | > 10 µM (inactive)
18 | COC(=O)C1=C(C)N(NC(N)=O)C(C)(O)C12CCOC2=O (configuration not stated) | > 100 µM (inactive) | > 100 µM (inactive) | > 100 µM (inactive) | > 100 µM (inactive) |  | > 100 µM (inactive) | > 100 µM (inactive) | > 100 µM (inactive) | > 100 µM (inactive)
20 | O=C(Nc1ccccc1)O/N=C1/CCCC/C1=C\c1ccccc1 | 19.6 µM (inactive) | 18.1 µM (inactive) |  | 12 µM (inactive) | 18.3 µM (inactive) | 14.6 µM (inactive) | 12.4 µM (inactive) | 15.9 µM (inactive) | 8.49 µM (inactive)
21 | O=C(CN1CCCCC1)N1CCc2c([nH]c3ccccc23)C1c1cccnc1 (configuration not stated) | > 100 µM (inactive) | > 100 µM (inactive) | > 100 µM (inactive) | > 100 µM (inactive) | > 100 µM (inactive) | > 100 µM (inactive) | > 100 µM (inactive) | > 100 µM (inactive) | > 100 µM (inactive)
